Assay results published in PubChem BioAssay (NCI).
Several values for one entry are separate records, joined by “and”; a condition that tells them apart may be missing. Equal values may be shown once.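 Values below derive from 48-hour exposures of cells grown in 96-well plates, with endpoints linearly interpolated between the two concentrations bracketing the appropriate inhibition level. Abbreviation: GI50, concentration required for 50% inhibition of growth. The concentration for full growth arrest is given as TGI.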 Where a SMILES comes first, the peptide text is derived from it.

Legend:
Experiment in all cases: growth of human tumour cells (NCI), 48 h
SF-295 CNS = test system: SF-295 CNS
UO-31 renal = test system: UO-31 renal
OVCAR-4 ovarian = test system: OVCAR-4 ovarian
UACC-257 melanoma = test system: UACC-257 melanoma
COLO 205 colon = test system: COLO 205 colon
SNB-19 CNS = test system: SNB-19 CNS
SK-MEL-28 melanoma = test system: SK-MEL-28 melanoma
NCI-H226 lung = test system: NCI-H226 lung
SR leukemia = test system: SR leukemia
HOP-92 NSCLC = test system: HOP-92 NSCLC

Row | Compound | TGI (SF-295 CNS) | TGI (UO-31 renal) | TGI (OVCAR-4 ovarian) | TGI (UACC-257 melanoma) | TGI (COLO 205 colon) | TGI (SNB-19 CNS) | TGI (SK-MEL-28 melanoma) | TGI (NCI-H226 lung) | TGI (SR leukemia) | TGI (HOP-92 NSCLC) | GI50 (HOP-92 NSCLC) | GI50 (OVCAR-4 ovarian)
1 | CCOC(=O)CC(=O)NC1CC2CCC1(C)C2(C)C (stereo not drawn) | > 100 µM | > 100 µM | > 100 µM | > 100 µM | > 100 µM | > 100 µM | > 100 µM | > 100 µM | > 100 µM |  |  | 
2 | c1ccc(COc2ccc(CC3SCCCS3)cc2)cc1 | > 100 µM |  | > 100 µM | > 100 µM | > 100 µM | > 100 µM | > 100 µM |  | > 100 µM | 74.3 µM |  | 
3 | O=c1c(O)c(-c2ccc(O)cc2O)oc2cc(O)cc(O)c12 | > 100 µM | > 100 µM | > 100 µM | > 100 µM | > 100 µM | > 100 µM | > 100 µM | > 100 µM |  | > 100 µM |  | 
4 | C=C[C@@H]1OC(=O)O[C@H]1CO | > 100 µM | > 100 µM | > 100 µM | > 100 µM | > 100 µM | > 100 µM | > 100 µM | > 100 µM | > 100 µM |  |  | 
5 | CC1NC(=O)CNC(=O)CNC(=O)C(Cc2ccc(O)cc2)NC(=O)C(C(C)C)NC(=O)C(C)NC1=O (stereo not drawn) (cyclo(GGAAVY); configuration not given here) | > 100 µM | > 100 µM | > 100 µM and 22.7 µM | > 100 µM | > 100 µM | > 100 µM | > 100 µM | > 100 µM |  | > 100 µM | > 100 µM | > 100 µM
6 | O=C(O)CC(C(=O)O)c1ccccc1[N+](=O)[O-] (stereo not drawn) | > 100 µM | > 100 µM | > 100 µM | > 100 µM | > 100 µM | > 100 µM | > 100 µM | > 100 µM |  | > 100 µM |  | 
7 | CC/C(=N\NC(=O)c1cccnc1)c1ccc2c(c1)OCCO2 | > 100 µM | > 100 µM | > 100 µM |  | > 100 µM | > 100 µM | > 100 µM | > 100 µM |  |  |  | 
8 | NCc1ccc(-c2ccc(-c3ccc(-c4ccc(CN)s4)s3)s2)s1 | > 100 µM | > 100 µM | > 100 µM | > 100 µM | > 100 µM | > 100 µM | > 100 µM | > 100 µM |  | > 100 µM |  | 
9 | Cc1cc(-c2ccc(C(=O)O)[nH]2)on1 | > 100 µM | > 100 µM | > 100 µM | > 100 µM | > 100 µM | > 100 µM | > 100 µM |  |  | > 100 µM |  | 
10 | C=C(O)c1ccccc1C#Cc1ccccc1C(=O)OC | > 10 µM | > 10 µM | > 10 µM | > 10 µM | > 10 µM | > 10 µM | > 10 µM | > 10 µM | > 10 µM |  |  | 
11 | CC1=C2C(O)C(C(C)C(=O)NCC(C)C)CCC2(C)C=CC1=O (stereo not drawn) | > 100 µM | > 100 µM | > 100 µM | > 100 µM | > 100 µM | > 100 µM | > 100 µM | > 100 µM |  | > 100 µM |  | 
12 | COc1ccc2c(c1)C(N)CC2=O (stereo not drawn) | > 100 µM | > 100 µM | > 100 µM | > 100 µM | > 100 µM | > 100 µM | > 100 µM | > 100 µM |  | > 100 µM |  | 
13 | CCN1CC2=C(N=c3s/c(=C\c4ccc(Cl)cc4)c(=O)n3C2c2ccc(Cl)cc2)/C(=C/c2ccc(Cl)cc2)C1 (stereo not drawn) | > 100 µM | > 100 µM | > 100 µM | > 100 µM | > 100 µM | > 100 µM | > 100 µM | > 100 µM |  |  |  | 
14 | S=c1[nH]nc(COc2ccc3c(c2)CCCC3)n1/N=C/c1ccc(Cl)cc1 | 33.7 µM | 31.4 µM | 32.8 µM | 48.1 µM | 31.2 µM | 40 µM | 33.1 µM |  |  | 32.9 µM |  | 
15 | COC(CN(C)C(=O)C(C)NC(=O)c1ccccc1)OC (stereo not drawn) | > 100 µM |  | > 100 µM | > 100 µM | > 100 µM |  |  | > 100 µM | > 100 µM | > 100 µM |  | 
16 | Cc1c(N2C(=O)/C(=C/C=C/c3ccccc3)N=C2c2ccccc2)c(=O)n(-c2ccccc2)n1C | 40 µM | 32.6 µM | 50.3 µM | 42.1 µM | 30.3 µM |  |  | 58.4 µM | 47.1 µM | 51.3 µM |  | 
17 | O=C(Cn1c(=O)ccn(C2OC(CO)C(O)C2F)c1=O)c1ccc(F)cc1 (stereo not drawn) | > 100 µM | > 100 µM |  | > 100 µM | > 100 µM | > 100 µM | > 100 µM | > 100 µM |  |  |  | 
18 | C[C@]12CC[C@@H]3c4ccc(O)cc4CC[C@H]3[C@@H]1C/C(=C\c1ccc([N+](=O)[O-])cc1)C2=O | > 100 µM | > 100 µM | > 100 µM | > 100 µM | > 100 µM | > 100 µM | > 100 µM | > 100 µM | > 100 µM |  |  | 
19 | CC(C)(C)OC(=O)[N+](=N)C(=O)C1CCC(=O)N1C(=O)OCc1ccccc1 (stereo not drawn) | > 100 µM | > 100 µM | > 100 µM |  | > 100 µM | > 100 µM | > 100 µM | > 100 µM | > 100 µM | > 100 µM |  | 
20 | COc1c(CC=C(C)C)c(O)c(C(CC(C)C)c2c(O)c(C(C)=O)c(O)c3c2OC(C(C)(C)O)C3)c(O)c1C(C)=O (stereo not drawn) |  | > 12.5 µM | > 12.5 µM | 9.32 µM | > 12.5 µM | > 12.5 µM | > 12.5 µM | > 12.5 µM | 10.4 µM | 5.21 µM |  | 
21 | CC(C)=CCC[C@]1(C)CC[C@]2(C)C3CCC(=C(C)C)[C@@H](CCCO)[C@]3(C)CC[C@@]2(C)C1 (stereo partly drawn) | > 100 µM | 34 µM | > 100 µM | 77.1 µM | > 100 µM | > 100 µM | > 100 µM | > 100 µM |  |  |  | 
22 | NC(N)=NCCCC(N=c1c2ccccc2n(O)c2ccccc12)C(=O)O (stereo not drawn) | > 100 µM | > 100 µM | > 100 µM |  | > 100 µM | > 100 µM | 90.1 µM | > 100 µM |  |  |  | 
23 | NC(=O)NC(=O)c1cnccn1 | > 100 µM | > 100 µM | > 100 µM | > 100 µM |  | > 100 µM | > 100 µM | > 100 µM |  | > 100 µM |  | 
24 | COc1ccc2[nH]c(CCNC(=O)c3cc([N+](=O)[O-])cc([N+](=O)[O-])c3)cc2c1 |  | > 100 µM | > 100 µM | > 100 µM | > 100 µM | > 100 µM | > 100 µM | > 100 µM | > 100 µM | 93.8 µM |  | 
